Laboratory results from US20080096861A1, “Chemical Compounds” (SMITHKLINE BEECHAM CORPORATION, priority 2004, published 2008).

Tested on: HIV-1 IIIB
Experiment: HOS HIV-1 infectivity assay
Type: cell-based
Conditions: Human immunodeficiency virus 1, IIIB; as determined by the infectivity assay; strain not stated in Table 2; read-out: Activity Level
Experimental: Compounds were profiled against two HIV-1 viruses, the M-tropic (CCR5 utilizing) Ba-L strain and the T-tropic (CXCR4 utilizing) IIIB strain. Both viruses were propagated in human peripheral blood lymphocytes. Compounds were tested for there ability to block infection of the HOS cell line (expressing hCXCR4/hCCR5/hCD4/pHIV-LTR-luciferase) by either HIV-1 Ba-L or HIV-1 IIIB. Compound cytotoxicity was also examined in the absence of virus addition.
HOS cells (expressing hCXCR4/hCCR5/hCD4/pHIV-LTR-luciferase) were harvested and diluted in Dulbeccos modified Eagles media supplemented with 2% FCS and non-essential amino acid to a concentration of 60,000 cells/ml. The cells were plated into 96-well plates (100 ul per well) and the plates were placed in a tissue culture incubator (37° C.; 5% CO2/95% air) for a period of 24 h.
Subsequently, 50 ul of the desired drug solution (4 times the final concentration) was added to each well and the plates were returned to the tissue culture incubator (37° C.; 5% CO2/95% air) for 1 h. Following this incubation 50 ul of diluted virus was added to each well (approximately 2 million RLU per well of virus). The plates were returned to the tissue culture incubator (37° C.; 5% CO2/95% air) and were incubated for a further 96 h.
Following this incubation the endpoint for the virally infected cultures was quantified following addition of Steady-Glo Luciferase assay system reagent (Promega, Madison, Wis.). Cell viability or non-infected cultures was measured using a CellTiter-Glo luminescent cell viability assay system (Promega, Madison, Wis.). All luminescent readouts are performed on a Topcount luminescence detector (Packard, Meridien, Conn.).

Row | IC50 [nM] | Structure (SMILES)
1 | 100 to 500 | CN1CCCCC1CCCn1c(CN(C)C2CCCc3cccnc32)nc2ccccc21 (centres unmarked) [Example 59, N-Methyl-N-({1-[3-(1-methyl-2-piperidinyl)propyl]-1H-benzimidazol-2-yl}methyl)-5,6,7,8-tetrahydro-8-quinolinamine]
2 | < 100 | CC(C)N1CCC[C@H](Cn2c(CN(CCO)[C@H]3CCCc4cccnc43)nc3ccccc32)C1 [Example 99, 2-{[(1-{[(3S)-1-(1-Methylethyl)-3-piperidinyl]methyl}-1H-benzimidazol-2-yl)methyl][(8S)-5,6,7,8-tetrahydro-8-quinolinyl]amino}ethanol]
3 | 100 to 500 | CN(C)CCCCCCn1c(CN(C)C2CCCc3cccnc32)nc2ccccc21 (centres unmarked) [Example 49, N-({1-[6-(Dimethylamino)hexyl]-1H-benzimidazol-2-yl}methyl)-N-methyl-5,6,7,8-tetrahydro-8-quinolinamine]
4 | < 100 | CN(Cc1nc2ccccc2n1CCC1CCCCN1)C1CCCc2cccnc21 (centres unmarked) [Example 23d, N-Methyl-N-({1-[2-(2-piperidinyl)ethyl]-1H-benzimidazol-2-yl}methyl)-5,6,7,8-tetrahydro-8-quinolinamine]
5 | < 100 | CN1CCC[C@H](Cn2c(CN(CCCO)[C@H]3CCCc4cccnc43)nc3ccccc32)C1 [Example 96, 3-{[(1-{[(3S)-1-Methyl-3-piperidinyl]methyl}-1H-benzimidazol-2-yl)methyl][(8S)-5,6,7,8-tetrahydro-8-quinolinyl]amino}-1-propanol]
6 | 100 to 500 | CN(Cc1nc2ccccc2n1CCCNS(C)(=O)=O)C1CCCc2cccnc21 (centres unmarked) [Example 63, N-[3-(2-{[Methyl(5,6,7,8-tetrahydro-8-quinolinyl)amino]methyl}-1H-benzimidazol-1-yl)propyl]methanesulfonamide]
7 | < 100 | CN1CCC[C@H](Cn2c(CN(CCO)[C@H]3CCCc4cccnc43)nc3ccccc32)C1 [Example 95, 2-{[(1-{[(3S)-1-Methyl-3-piperidinyl]methyl}-1H-benzimidazol-2-yl)methyl][(8S)-5,6,7,8-tetrahydro-8-quinolinyl]amino}ethanol]
8 | 100 to 500 | CN(Cc1nc2ccccc2n1CCCCNS(C)(=O)=O)C1CCCc2cccnc21 (centres unmarked) [Example 51, N-[4-(2-{[Methyl(5,6,7,8-tetrahydro-8-quinolinyl)amino]methyl}-1H-benzimidazol-1-yl)butyl]methanesulfonamide]
9 | 500 to 10000 | CC(C)CCN(CCCn1c(CN(C)C2CCCc3cccnc32)nc2ccccc21)CCC(C)C (centres unmarked) [Example 65, N-[(1-[3-[Bis(3-methylbutyl)amino]propyl]-1H-benzimidazol-2-yl)methyl]-N-methyl-5,6,7,8-tetrahydro-8-quinolinamine]
10 | 100 to 500 | CC(C)CN(Cc1nc2ccccc2n1C[C@H]1CCCN(C)C1)[C@H]1CCCc2cccnc21 [Example 94, (8S)—N-[(1-{[(3S)-1-Methyl-3-piperidinyl]methyl}-1H-benzimidazol-2-yl)methyl]-N-(2-methylpropyl)-5,6,7,8-tetrahydro-8-quinolinamine]
11 | 500 to 10000 | NCCCn1c(CN(CCc2ccccc2)C2CCCc3cccnc32)nc2ccccc21 (centres unmarked) [Example 52, N-{[1-(3-Aminopropyl)-1H-benzimidazol-2-yl]methyl}-N-(2-phenylethyl)-5,6,7,8-tetrahydro-8-quinolinamine]
12 | 100 to 500 | CN(Cc1nc2ccccc2n1Cc1ccncc1)C1CCCc2cccnc21 (centres unmarked) [Example 27, N-Methyl-N-{[1-(4-pyridinylmethyl)-1H-benzimidazol-2-yl]methyl}-5,6,7,8-tetrahydro-8-quinolinamine]
13 | < 100 | CN(Cc1nc2ccccc2n1C[C@H]1CCCN(Cc2ccncc2)C1)[C@H]1CCCc2cccnc21 [Example 42, (8S)—N-Methyl-N-[(1-{[(3S)-1-(4-pyridinylmethyl)-3-piperidinyl]methyl}-1H-benzimidazol-2-yl)methyl]-5,6,7,8-tetrahydro-8-quinolinamine]
14 | < 100 | CC(C)N1CCC[C@H]1CN1CCC[C@H](Cn2c(CN(C)[C@H]3CCCc4cccnc43)nc3ccccc32)C1 [Example 107, (8S)—N-Methyl-N-({1-[((3S)-1-{[(2S)-1-(1-methylethyl)-2-Pyrrolidinyl]methyl}-3-piperidinyl)methyl]-1H-benzimidazol-2-yl}methyl)-5,6,7,8-tetrahydro-8-quinolinamine]
15 | < 100 | CN(Cc1nc2ccccc2n1C[C@H]1CCCN(Cc2cccs2)C1)[C@H]1CCCc2cccnc21 [Example 102, (8S)—N-Methyl-N-[(1-{[(3S)-1-(2-thienylmethyl)-3-Piperidinyl]methyl}-1H-benzimidazol-2-yl)methyl]-5,6,7,8-tetrahydro-8-quinolinamine]
16 | < 100 | CC(C)N1CCC[C@H](Cn2c(CN(C)[C@H]3CCCc4cccnc43)nc3ccccc32)C1 [Example 85, (8S)—N-Methyl-N-[(1-{[(3S)-1-(1-methylethyl)-3-piperidinyl]methyl}-1H-benzimidazol-2-yl)methyl]-5,6,7,8-tetrahydro-8-quinolinamine]
17 | 100 to 500 | CN(Cc1nc2ccccc2n1CCc1cncn1C)C1CCCc2cccnc21 (centres unmarked) [Example 71, N-Methyl-N-({1-[2-(1-methyl-1H-imidazol-5-yl)ethyl]-1H-benzimidazol-2-yl}methyl)-5,6,7,8-tetrahydro-8-quinolinamine]
18 | 100 to 500 | CN1CCC[C@H](Cn2c(CN(C)[C@@H]3CCCc4cccnc43)nc3ccccc32)C1 [Example 76, (8R)—N-Methyl-N-[(1-{[(3S)-1-methyl-3-piperidinyl]methyl}-1H-benzimidazol-2-yl)methyl]-5,6,7,8-tetrahydro-8-quinolinamine]
19 | < 100 | CN1CCC[C@@H]1CN1CCC[C@H](Cn2c(CN(C)[C@H]3CCCc4cccnc43)nc3ccccc32)C1 [Example 108, (8S)—N-Methyl-N-([1-[((3S)-1-{[(2R)-1-methyl-2-pyrrolidinyl]methyl}-3-piperidinyl)methyl]-1H-benzimidazol-2-yl]methyl)-5,6,7,8-tetrahydro-8-quinolinamine]
20 | < 100 | CN(C)CC(C)(C)CN1CCC[C@H](Cn2c(CN(C)[C@H]3CCCc4cccnc43)nc3ccccc32)C1 [Example 101, (8S)—N-{[1-({(3S)-1-[3-(Dimethylamino)-2,2-dimethylpropyl]-3-piperidinyl}methyl)-1H-benzimidazol-2-yl]methyl}-N-methyl-5,6,7,8-tetrahydro-8-quinolinamine]
21 | < 100 | CN1CCC[C@@H](Cn2c(CN(C)[C@H]3CCCc4cccnc43)nc3ccccc32)C1 [Example 75f, (8S)—N-Methyl-N-[(1-{[(3R)-1-methyl-3-piperidinyl]methyl}-1H-benzimidazol-2-yl)methyl]-5,6,7,8-tetrahydro-8-quinolinamine]
22 | < 100 | CCCN(Cc1nc2ccccc2n1C[C@H]1CCCN(C(C)C)C1)[C@H]1CCCc2cccnc21 [Example 97, (8S)—N-[(1-{[(3S)-1-(1-methylethyl)-3-piperidinyl]methyl}-1H-benzimidazol-2-yl)methyl]-N-propyl-5,6,7,8-tetrahydro-8-quinolinamine]
23 | < 100 | CN(Cc1nc2ccccc2n1CCCN)[C@H]1CCCc2cccnc21 [Example 110, (8S)—N-{[1-(3-Aminopropyl)-1H-benzimidazol-2-yl]methyl}-N-methyl-5,6,7,8-tetrahydro-8-quinolinamine]
24 | 100 to 500 | CN(Cc1nc2ccccc2n1C[C@H]1CCCN(Cc2nccs2)C1)[C@H]1CCCc2cccnc21 [Example 103, (8S)—N-Methyl-N-[(1-{[(3S)-1-(1,3-thiazol-2-ylmethyl)-3-piperidinyl]methyl}-1H-benzimidazol-2-yl)methyl]-5,6,7,8-tetrahydro-8-quinolinamine]
25 | 100 to 500 | CN(Cc1nc2ccccc2n1CC(=O)NCCCN)C1CCCc2cccnc21 (centres unmarked) [Example 30, N-(3-Aminopropyl)-2-(2-{[methyl(5,6,7,8-tetrahydro-8-quinolinyl)amino]methyl}-1H-benzimidazol-1-yl)acetamide]
26 | < 100 | CN(Cc1nc2ccccc2n1C[C@H]1CCCN(Cc2cccnc2)C1)[C@H]1CCCc2cccnc21 [Example 41, (8S)—N-Methyl-N-[(1-{[(3S)-1-(3-pyridinylmethyl)-3-piperidinyl]methyl}-1H-benzimidazol-2-yl)methyl]-5,6,7,8-tetrahydro-8-quinolinamine]
27 | < 100 | CN(Cc1nc2ccccc2n1C[C@H]1CCCN(C(=N)N)C1)[C@H]1CCCc2cccnc21 [Example 89, (3R)-3-{[2-({Methyl[(8S)-5,6,7,8-tetrahydro-8-quinolinyl]amino}methyl)-1H-benzimidazol-1-yl]methyl}-1-piperidinecarboximidamide]
28 | 100 to 500 | CN(Cc1nc2ccccc2n1C/C=C/CN)C1CCCc2cccnc21 (centres unmarked) [Example 58, N-({1-[(2E)-4-Amino-2-buten-1-yl]-1H-benzimidazol-2-yl}methyl)-N-methyl-5,6,7,8-tetrahydro-8-quinolinamine]
29 | 500 to 10000 | CN(C)CCCn1ccnc1CN(C)C1CCCc2cccnc21 (centres unmarked) [Example 38, N-({1-[3-(Dimethylamino)propyl]-1H-imidazol-2-yl}methyl)-N-methyl-5,6,7,8-tetrahydro-8-quinolinamine]
